These results are taken from patent US6552027B2, “Quinazolines for treating brain tumor” (Parker Hughes Institute, priority 1998, dated 2003).

One series concerns U373 cells. Kind of series: Adhesion of glioblastoma cells to ECM protein-coated plates. The class given is cell-based, human. As to conditions: for IC50: Homo sapiens, U373 MG. On the procedure:
In vitro adhesion assays were performed to (a) study the baseline adhesive properties of various glioblastoma cell lines and (b) evaluate the effects of quinazoline derivatives on the adhesive properties of glioblastoma cells. The plates for the adhesion assays were precoated with the extracellular matrix proteins laminin, fibronectin or type IV collagen (each at a final concentration of 1 μg/ml in PBS) overnight at 4° C. and dried. On the day of the experiment, the wells were rehydrated and blocked with 10% bovine serum albumin in PBS for 1 hour at room temperature and used for the adhesion assays, as described below.
DMSO (0.1%) was included as a vehicle control. After treatment, cells were detached from the flasks with 0.05% trypsin (Life Technologies) resuspended in DMEM, incubated at 37° C. for 2 hours to allow them to recover from the trypsinization stress and examined for their ability to adhere to plates precoated with ECM proteins.
In adhesion assays, cells were centrifuged, washed twice with serum-free DMEM, counted and resuspended in serum-free DMEM to a final concentration of 2.5×10^5 cells/ml. One hundred μl of the cell suspension containing 2.5×10^4 cells were added to each well and cells were allow d to adhere for 1 hour at 37° C. in a humidified 5% CO2 atmosphere. The adherent fraction was quantitated using MTT (3-[4,5-dimethylthiazol-2-yl]-2,5-diphenyltetrazolium bromide) assays. […] The adherent fractions of cells treated with quinazoline derivatives were compared to those of DMSO-treated control cells and the percent inhibition of adhesion was determined sing the formula: [formula]
Each treatment condition was evaluate d in duplicate in 3 independent experiments.

A further series relates to U373 glioblastoma cells. Description: Glioblastoma cell invasion through Matrigel matrix (Boyden chambers). It is filed as cell-based. As to conditions: Homo sapiens, U373 MG. On the procedure:
The in vitro invasiveness of glioblastoma cells was assayed using a previously published method which employs Matrigel-coated Costar 24-well transwell cell culture chambers (“Boyden chambers”) with 8.0-μm-pore polycarbonate filter inserts (Albini, A., Iwamoto, Y., Kleinman, H. K., Martin, G. R., Aaronson, S. A., Kozlowski, J. M., and McEwan, R. N., 1987, Cancer Res., 47:3239-3245). The chamber filters were coated with 50 μg/ml of Matrigel matrix, incubated overnight at room temperature under a laminar flow hood and stored at 4° C. Matrigel matrix is made up of several components of the extralcellular matrix (ECM), including collagens, laminin and proteo-glycans
On the day of the experiment, the coated inserts were rehydrated with 0.5 ml serum-free DMEM containing 0.1% bovine serum albumin for 1-2 hours. To study the effects of quinazoline derivatives on invasiveness of glioblastoma cells, exponentially growing cells were incubated overnight with WHI-P97, WHI-P131 and WHI-P154 at various concentrations ranging from 1 μM to 50 μM. The cells were trypsinized, washed twice with serum-free DMEM containing BSA, counted and resuspended at 1×10^5 cells/ml. 0.5 ml cell suspension containing 5×10^4 cells in a serum-free DMEM containing quinazoline compounds or vehicle was added to the Matrigel-coated and rehydrated filter inserts. Next, 750 μl of NIH fibroblast conditioned medium was placed as a chemoattractant in 24-well plates and the inserts were placed in wells and incubated at 37° C. for 48 hours. […] The invasive cells that migrated to the lower side of the filter were fixed, stained with Hema-3 solutions and counted under microscope. Five to 10 random fields per filter were counted to determine the mean (±SE) values for the invasive fraction. The invasive fractions of cells treated with quinazoline derivatives were compared to those of DMSO treated control cells and he percent inhibition of invasiveness was determined using the formula: [formula]
Each treatment condition was evaluated in duplicate in 3 independent experiments. IC50 values were calculated by non-linear regression analysis using Graphpad Prisin Software Version 2.0 (Graphpad Software Inc., San Diego, Calif.).

A further series relates to NALM-6 leukemia cells. Description: MTT cytotoxicity assay, EGF-R negative leukemia cells (negative control line). The note with it: NALM-6; FIG. 5B. It is filed as cell-based. On the procedure:
Triplicate wells were used for each treatment.
Human glioblastoma cell line U373 was obtained from American.
The percent survival was calculated using the formula: [formula]

Series [1] has as its system U373 human glioblastoma cells. Kind of series: SCID mouse xenograft model of human glioblastoma. As to conditions: 1 mg/kg/day×10 days i.p. On the procedure: The right hind legs of the CB. 17 SCID mice were inoculated subcutaneously (s.c.) with 0.5×10^6 U373 human glioblastoma cells in 0.2 mL PBS. […] Daily treatments with PBS, unconjugated EGF (1 mg/kg/dose), and unconjugated WHI-P154 (1 mg/kg/dose) were used as controls. Mice were monitored daily for health status and tumor growth, and were sacrificed if they became moribund developed tumors which impeded their ability to attain food or water, at the end of the 3-month observation period. Tumors were measured using Vernier calipers twice weekly, and the tumor volumes were calculated according to the following formula (Friedman, S. H., mDolan, M. E., Pegg, A. E., Marcelli, S., Keir, S., Catino, J. J., Binger, D. D., Schold, S. C., Jr., 1995, Cancer Res., 55:2853-2857): [formula]
For histopathologic studies, tissues were fixed in 10% neutral buffered formalin, dehydrated, and embedded in paraffin by routine methods. Glass slides with affixed 6 micron tissue sections were prepared and stained with hematoxylin/eosin. Primary endpoints of interest were tumor growth and tumor-free survival outcome. Estimation of life table outcome and comparisons of outcome between groups were done, as previously reported (Waurzyniak, et al., 1997, Clinical Cancer Research 3:881-890; Anderson, et al., 1995, Cancer Res. 55:1321-1327; Uckun, et al., 1997, J. Clin. Oncol. 15:2214-2221).

For series [2], the system named is U373 human glioblastoma cell line. Description: MTT cytotoxicity assay, U373 glioblastoma cells. The note with it: for IC50: Homo sapiens, U373 MG. On the procedure: (§1) The cytotoxicity assay of various compounds against human brain tumor cell lines was performed using the MTT (3-[4,5-dimethylthiazol-2-yl]-2,5-diphenyl tetrazolium bromide) assay (Boehringer Mannheim Corp., Indianapolis, Ind.). Briefly, exponentially growing brain tumor cells were seeded into a 96-well plate at a density of 2.5×10^4 cells/well and incubated for 36 hours at 37° C. prior to drug exposure. […] Triplicate wells were used for each treatment.
Human glioblastoma cell line U373 was obtained from American. Type Culture Collection (Rockville, Md.) and maintained as a continuous cell line in Dulbecco's modified Eagles's medium supplemented with 10% fetal bovine serum and antibiotics. The B-lineage acute lymphoblastic leukemia cell line Nalm-6 was used as a negative control.
(§2) The cells were incubated with the various compounds for 24-36 hours at 37° C. in a humidified 5% CO2 atmosphere. To each well, 10 μl of MTT (0.5 mg/ml final concentration) was added and the plates were incubated at 37° C. for 4 hours to allow MTT to form formazan crystals by reacting with metabolically active cells. The formazan crystals were solubilized overnight at 37° C. in a solution containing 10% SDS in 0.01 M HCl. The absorbence of each well was measured in a microplate reader (Labsystems) at 540 nm and a reference wavelength of 690 nm. To translate the OD540 values into the number of live cells in each well, the OD540 values were compared to those on standard OD540—versus—cell number curves generated for each cell line. The percent survival was calculated using the formula: [formula]
(§3) The IC50 values were calculated by non linear regression analysis.

Series [3] deals with U87 human glioblastoma cell line. Kind of series: MTT cytotoxicity assay, U87 glioblastoma cells. As to conditions: Homo sapiens, unconjugated compound, read-out: IC50 value. The class given is cell-based. On the procedure: as §1, §2, §3
Apoptosis was also evaluated using the nick-end-labeling assay, as described for Example 3.

Where [4] appears, read: one bound for all three coatings, read-out: all IC50 values, adhesion to laminin-, fibronectin- and collagen-coated plates.
Setting [5] is: U373, 3 independent experiments, 48 hours, read-out: mean IC50 value, invasion through Matrigel matrix.
The mark [6] stands for this setting: U373, 3 independent experiments, read-out: range of IC50 values, invasion through Matrigel matrix.
The mark [7] stands for this setting: read-out: IC50 value derived from the average values of three experiments, invasion.

Counter-ions that a name gives are not always drawn. Like-named read-outs stand apart in the source and are kept apart here. Some results are limits rather than exact numbers.

In turn, `COc1cc2ncnc(Nc3cc4ccccc4cc3O)c2cc1OC` (as salt: salt) [WHI-P292, 4-(2′-Hydroxy-naphthyl-3′)-amino-6,7-dimethoxyquinazoline] yielded a melting point of 277 to 279 °C.

In the case of `COc1cc2ncnc(Nc3cccc(Br)c3)c2cc1OC` [WHI-P79, 4-(3′-Bromophenyl)-amino-6,7-dimethoxyquinazoline], the IC50 in the series with U373 cells (setting [4]) is > 50 µM.

Regarding `COc1cc2ncnc(Nc3cc(Br)c(O)c(Br)c3)c2cc1OC` [WHI-P97, 4-(3′, 5′-Dibromo-4′-hydroxylphenyl)-amino-6,7-dimethoxyquinazoline], the results for the IC50 with U373 glioblastoma cells (setting [5]), in the series on U373 glioblastoma cells (setting [6]) and in the series on U373 glioblastoma cells (setting [7]) were 10.6 ± 1.8 µM, 9.57 to 11.6 µM and 9.58 µM, respectively.

`COc1cc2ncnc(Nc3ccc(C)c(Br)c3)c2cc1OC` [WHI-P111, 4-(3′-Bromo-4′-methylphenyl)-amino-6,7-dimethoxyquinazoline] returned a melting point of 225 to 228 °C.

`COc1cc2ncnc(Nc3ccc(O)cc3)c2cc1OC` [WHI-P131, 4-(4′-Hydroxylphenyl)-amino-6,7-dimethoxyquinazoline]: the IC50 in the series with U373 glioblastoma cells (setting [5]) is 7.07 ± 1.8 µM; with U373 glioblastoma cells (setting [6]), 5.08 to 8.59 µM; with U373 glioblastoma cells (setting [7]), 7.95 µM; in the series with U373 cells (setting [4]), > 50 µM.

As for `COc1cc2ncnc(Nc3ccc(O)c(Br)c3)c2cc1OC` [WHI-P154, 4-(3′-Bromo-4′-hydroxylphenyl)-amino-6,7-dimethoxyquinazoline], in the series with NALM-6 leukemia cells, the “cytotoxicity against EGF-R negative leukemia cells (in words)” value was “marked cytotoxicity”. Further, in series [1], the “time at which tumors reached a size of 50 mm^3” value is 36.0 ± 5.1 days. This compound also gave a median tumor-free survival in series [1] (N=5) of 19 days. For the same compound, the half-inhibitory concentration (IC50) was 4.46 ± 0.8 µM in the series with U373 glioblastoma cells (setting [5]); 3.53 to 5.01 µM in the series on U373 glioblastoma cells (setting [6]); 5.2 µM in the series on U373 glioblastoma cells (setting [7]); 42.7 ± 2.5 µM in the series with U373 cells (16 hours treatment, N=3, read-out: mean IC50 value, adhesion to collagen-coated plates); 29.8 ± 3.1 µM in the series with U373 cells (16 hours treatment, N=3, read-out: mean IC50 value, adhesion to fibronectin-coated plates); 36.1 ± 3.5 µM with U373 cells (16 hours treatment, N=3, read-out: mean IC50 value, adhesion to laminin-coated plates). Also, the 50% inhibitory concentration (IC50) in series [2] (read-out: composite survival curve IC50 value) came to 158 µM; in series [2] (read-out: mean (±SE) IC50 value), 167 ± 26.9 µM; in series [3], 179 ± 18.5 µM.

Consider `COc1cc2ncnc(Nc3cc4ccccc4cc3O)c2cc1OC` [WHI-P292, 4-(2′-Hydroxy-naphthyl-3′)-amino-6,7-dimethoxyquinazoline], for which the 50% inhibitory concentration (IC50) in series [2] worked out at 38.2 µM.

On to `O=c1c(-c2ccc(O)cc2)coc2cc(O)cc(O)c12` [genistein, reference compound], for which the “inhibition of glioblastoma cell adhesion (in words)” value in the series with U373 cells (ECM-coated plates) was “did not affect glioblastoma cell adhesion and motility”. Also, the IC50 in series [2] (read-out: IC50 value) was > 250 µM. In addition, in series [2] (U373, MTT, 0.1 to 250 μM, FIGS. 1A and 1B), the “cytotoxicity against brain tumor cells (in words)” value was “also ineffective”.
